“And” between values parts separate entries of the source, which are not always exact repeats. Identical values can stand only once. “Also recorded” adds a separate entry of the source. Like-named read-outs stand apart in the source and are kept apart here.
Test: Plasma pharmacokinetics and brain uptake of antrafenine in mice (LC-MS)
Assay type: in vivo, male C57BL/6 mice
Description: Plasma pharmacokinetics and brain uptake of antrafenine was analyzed in male C57BL/6 mice. Antrafenine was administered intravenously at 1 mg/kg and 3 mg/kg into the tail vein and plasma was collected over a 24‐hour sampling period (n = 3 mice/time point). Following administration, the brain was harvested at 4 times over 24 hours and snap frozen in dry ice and subsequently stored frozen (−80°C) until analysis. The concentration of antrafenine was determined using liquid chromatography–mass spectrometry. The in vivo study was conducted using established procedures in accordance with the Australian Code of Practice for the Care and Use of Animals for Scientific Purposes, and the study protocols were reviewed and approved by the Monash Institute of Pharmaceutical Sciences Animal Ethics Committee. See Supporting Information for detailed methods and results. […]
Plasma pharmacokinetics and brain uptake of antrafenine was analyzed in male C57BL/6 mice by the Monash University Centre for Drug Candidate Optimisation. Antrafenine was administered intravenously at 1 mg/kg and 3 mg/kg into the tail vein and plasma was collected over a 24 h sampling period (n=3 mice/time point). Following administration, brain was harvested at four times over 24 hours and snap frozen in dry ice and subsequently stored frozen (-80°C) until analysis. The concentration of antrafenine was determined using liquid chromatography–mass spectrometry (LC-MS).
4 hrs post IV administration of 3 mg/kg Antrafenine was taken as a representative time to compare plasma and brain concentrations. At 4 hrs we determined a mean plasma concentration of 47.5 nM (+5.9 nM SD) and a mean brain concentration of 13.9 nM (+3 nM SD). […]
Plasma pharmacokinetics and brain uptake of antrafenine
The systemic exposure of antrafenine was studied in non-fasted male C57BL/6 mice weighing 19.8 – 24.6 g. Mice had access to food and water ad libitum throughout the pre- and post-dose period. Antrafenine hydrochloride Mw 588.554 (Lot#10-KSS-51-2) was obtained from Toronto Research Chemicals/LGC Standards, Canada, and was dissolved in vehicle; 5% (v/v) DMSO, 25% (v/v) 40% (w/v) Trappsol in 0.9% (w/v) saline, 70% (v/v) 40 mM citrate buffered saline at pH 3.5 at concentrations of 0.5 mg/mL and 1.5 mg/mL.
On the day of dosing, each formulation was prepared by dissolving solid antrafenine in DMSO using vortexing and sonication prior to addition of 40% (w/v) Trappsol in 0.9% (w/v) saline followed by 40 mM citrate-buffered saline at pH 3.5. Each sample was vortexed to create a colorless / light yellow solution and was filtered through a 0.22 µm syringe filter prior to dosing.
Administration of antrafenine was performed by a single bolus IV injection into the tail vein of C57BL/6 male mice using a 1ml syringe with a 25G x 1” needle at a volume of 2 mL/kg. Each […]
formulation was dosed to mice by bolus injection into the lateral tail vein (2 mL/kg) and blood samples were collected at 1, 2, 5, 15 and 30 min; 1, 2, 4, 7.5 and 24 h post-dose (n=3 mice per time point for each formulation). A maximum of three blood samples were obtained from each mouse, with plasma samples being taken via submandibular bleed (approximately 120 μL).
Blood was collected into polypropylene Eppendorf tubes containing heparin as anticoagulant and stabilization cocktail (Complete® (containing a protease inhibitor cocktail and EDTA) and potassium fluoride) to minimize the potential for ex vivo compound degradation in blood/plasma samples. Once collected, blood samples were centrifuged immediately, supernatant plasma was removed, snap frozen in dry ice and stored at -80°C until analysis by LC-MS. In addition, at the 15 min, 1, 4 and 24 h post-dose time points, the whole brain was rapidly removed from the carcass soon after the blood collection. The whole brains were blotted to remove excess blood, placed into pre-weighed polypropylene vials and weighed. The brains were snap frozen in dry […]

[1] = IV 1 mg/kg, 0.25 h, individual mice, 1 mg/kg
[2] = IV 1 mg/kg, 1 h, individual mice, 1 mg/kg
[3] = IV 1 mg/kg, 4 h, individual mice, 1 mg/kg
[4] = IV 3 mg/kg, 0.25 h, individual mice, 3 mg/kg
[5] = IV 3 mg/kg, 1 h, individual mice, 3 mg/kg
[6] = IV 3 mg/kg, 4 h, individual mice, 3 mg/kg

Q: For `O=C(OCCN1CCN(c2cccc(C(F)(F)F)c2)CC1)c1ccccc1Nc1ccnc2cc(C(F)(F)F)ccc12` [antrafenine], which “detection in brain at 24 h” value (24 h post-dose, either dose level (1 and 3 mg/kg IV)) is on record?
A: not detected

Q: And the “B:P ratio Individual” value [1]?
A: 0.027 and 0.094 and 0.028

Q: And the “Plasma Concentration Individual” value [1]?
A: 233 nM and 344 nM

Q: What about the concentration at 4 h (IV 1 mg/kg, 0.25 h, individual mice, 1 mg/kg, read-out: Brain Parenchyma Concentration Individual) of the same molecule?
A: 8.5 nM and 22 nM and 9.5 nM

Q: What about the “B:P ratio Individual” value [2] of the same molecule?
A: 0.087 and 0.046 and 0.096

Q: And the “Plasma Concentration Individual” value [2]?
A: 112 nM and 104 nM

Q: And the concentration at 4 h (IV 1 mg/kg, 1 h, individual mice, 1 mg/kg, read-out: Brain Parenchyma Concentration Individual)?
A: 10.5 nM and 5.2 nM and 9.9 nM

Q: What about the “B:P ratio Individual” value [3] of the same molecule?
A: 0.46 and 0.26 and 0.17

Q: And the “Plasma Concentration Individual” value [3]?
A: 14 nM and 12.9 nM

Q: What about the concentration at 4 h (IV 1 mg/kg, 4 h, individual mice, 1 mg/kg, read-out: Brain Parenchyma Concentration Individual) of the same molecule?
A: 5.7 nM and 3.7 nM and 2.2 nM

Q: What about the “Plasma Concentration Individual” value (IV 1 mg/kg, 24 h, individual mice, 1 mg/kg) of the same molecule?
A: 1.6 nM and 1.8 nM

Q: What about the “B:P ratio Individual” value [4] of the same molecule?
A: 0.038 and 0.048

Q: And the “Plasma Concentration Individual” value [4]?
A: 705 nM and 648 nM

Q: What about the concentration at 4 h (IV 3 mg/kg, 0.25 h, individual mice, 3 mg/kg, read-out: Brain Parenchyma Concentration Individual) of the same molecule?
A: 26.6 nM and 30.9 nM

Q: What about the “B:P ratio Individual” value [5] of the same molecule?
A: 0.087 and 0.10

Q: What about the “Plasma Concentration Individual” value [5] of the same molecule?
A: 208 nM and 349 nM

Q: What about the concentration at 4 h (IV 3 mg/kg, 1 h, individual mice, 3 mg/kg, read-out: Brain Parenchyma Concentration Individual) of the same molecule?
A: 40.2 nM and 18.2 nM and 35.8 nM

Q: And the “B:P ratio Individual” value [6]?
A: 0.30 and 0.25

Q: What about the “Plasma Concentration Individual” value [6] of the same molecule?
A: 41.9 nM and 47.1 nM

Q: And the concentration at 4 h (IV 3 mg/kg, 4 h, individual mice, 3 mg/kg, read-out: Brain Parenchyma Concentration Individual)?
A: 12.7 nM and 11.7 nM

Q: And the “Plasma Concentration Individual” value (IV 3 mg/kg, 24 h, individual mice, 3 mg/kg)?
A: 8.8 nM and 5.1 nM

Q: And the “adverse reactions / toxic effects in mice” value (IV at 1 and 3 mg/kg)?
A: No adverse reactions or compound-related side effects were observed; also recorded: No toxic effects

Q: And the “apparent plasma clearance (in words)” value (IV at 1 and 3 mg/kg)?
A: low

Q: What about the “volume of distribution (in words)” value (IV at 1 and 3 mg/kg) of the same molecule?
A: high

Q: What about the concentration at 4 h (male, C57BL/6, mouse, brain parenchyma, iv, 3 mg/kg, IV 3 mg/kg, 4 h, individual mice, read-out: Brain Parenchyma Concentration Individual) of the same molecule?
A: 17.3 nM

Q: And the concentration at 4 h (male, C57BL/6, mouse, brain parenchyma, iv, 3 mg/kg, IV 3 mg/kg, 4 h, n = 3, read-out: Brain Parenchyma Concentration Mean ± SD)?
A: 13.9 nM

Q: What about the Kp at 0.25 h (male, C57BL/6, mouse, brain, iv, 1 mg/kg, IV 1 mg/kg, 0.25 h, n = 3, read-out: B:P ratio Mean ± SD) of the same molecule?
A: 0.05

Q: What about the concentration at 0.25 h (male, C57BL/6, mouse, brain, iv, 1 mg/kg, IV 1 mg/kg, 0.25 h, n = 3, read-out: Brain Parenchyma Concentration Mean ± SD) of the same molecule?
A: 13.3 nM

Q: What about the Kp at 1 h (male, C57BL/6, mouse, brain, iv, 1 mg/kg, IV 1 mg/kg, 1 h, n = 3, read-out: B:P ratio Mean ± SD) of the same molecule?
A: 0.076

Q: What about the concentration at 1 h (male, C57BL/6, mouse, brain, iv, 1 mg/kg, IV 1 mg/kg, 1 h, n = 3, read-out: Brain Parenchyma Concentration Mean ± SD) of the same molecule?
A: 8.5 nM

Q: And the Kp at 4 h (male, C57BL/6, mouse, brain, iv, 1 mg/kg, IV 1 mg/kg, 4 h, n = 3, read-out: B:P ratio Mean ± SD)?
A: 0.3 ± 0.15

Q: What about the concentration at 4 h (male, C57BL/6, mouse, brain, iv, 1 mg/kg, IV 1 mg/kg, 4 h, n = 3, read-out: Brain Parenchyma Concentration Mean ± SD) of the same molecule?
A: 3.9 nM

Q: And the Kp at 0.25 h (male, C57BL/6, mouse, brain, iv, 3 mg/kg, IV 3 mg/kg, 0.25 h, individual mice, read-out: B:P ratio Individual)?
A: 0.042

Q: What about the concentration at 0.25 h (male, C57BL/6, mouse, brain, iv, 3 mg/kg, IV 3 mg/kg, 0.25 h, individual mice, read-out: Brain Parenchyma Concentration Individual) of the same molecule?
A: 31.1 nM

Q: And the Kp at 0.25 h (male, C57BL/6, mouse, brain, iv, 3 mg/kg, IV 3 mg/kg, 0.25 h, n = 3, read-out: B:P ratio Mean ± SD)?
A: 0.042

Q: What about the concentration at 0.25 h (male, C57BL/6, mouse, brain, iv, 3 mg/kg, IV 3 mg/kg, 0.25 h, n = 3, read-out: Brain Parenchyma Concentration Mean ± SD) of the same molecule?
A: 29.5 nM
